From patent publication EP4778922A1, “BICYCLIC COMPOUND, AND PREPARATION METHOD THEREFOR AND PHARMACEUTICAL USE THEREOF” (Shanghai Jeyou Pharmaceutical Co., Ltd., priority 2023, dated 2025) come the findings set out here.

SMILES strings stand for the structures. Where two headings read alike, the source gives them in different places.

Data set [1] deals with 22RV1 cells. Kind of data set: Cell proliferation inhibition assay in 22RV1 cells (CellTiter-Glo, 7 days). Conditions: Homo sapiens. The class given is cell-based, human. Here is the method: • 1. The human prostate cancer cell lines 22RV1 and LNCaP were purchased from ATCC. […] The cell concentration was adjusted to an appropriate concentration (determined based on the results of cell density optimization experiments), and the cells were seeded into a 96-well plate. A 100 µL cell suspension was added, resulting in 3000 cells per well. […] On the second day, for 22Rv1 cells, test compounds at different concentrations were added, and the cells were incubated at 37°C in a 5% CO2 incubator for 7 days; for LNCaP cells, test compounds at different concentrations were added first, and after 1 hour of treatment, 0.2 nM DHT was added. The cells were then incubated at 37°C in a 5% CO2 incubator for 7 days. • 4. After the incubation period, a volume of CellTiter-Glo detection reagent equal to the volume of the culture medium was added to each well. The plate was shaken and mixed thoroughly for 5 minutes, then incubated at room temperature for 10 minutes. Readings were taken using a PerkinElmer EnVision microplate reader. • 5.
The IC50 curve was fitted and the IC50 value was calculated using the software GraphPad Prism 8 with the calculation formula XY-analysis/Nonlinear regression (curve fit)/Dose response-Inhibition/log (inhibitor) vs. response-Variable slope (four parameters).
On the technique in general: In ATP-based viability assays light output follows the ATP content of the culture.

The nature of data set [2]: Mouse pharmacokinetic test. The class given is in vivo, ICR mice. To be noted: 30 mg/kg, PO-30mpk; for Tmax: read-out: Tmax. Here is the method: Formulation preparation: The dosing solutions were prepared on the day of administration.
Six healthy male naive ICR mice weighing 25-30 g were selected and divided into two groups (intravenous and oral groups), with three mice in each group, and administered a single dose. […] Feeding was resumed 4 h after administration. Timing was initiated following intravenous and oral administration. […] The collected whole blood was briefly vortexed twice for mixing, placed on wet ice, and centrifuged at 4°C and 8000 rpm for 5 min within 1 h. The supernatant plasma was collected and stored at -80°C until processing and analysis. Table 3: Pharmacokinetics in mice

What is called IC50 is the concentration needed to halve the response being measured. By AUC(0-inf) is commonly meant the area under the concentration-time curve extrapolated to infinity. The low end stands for low exposure, the high end for high exposure. Usually Cmax stands for the highest concentration seen after dosing. By half-life is commonly meant the time needed for the level to fall by half in the phase considered. The term Tmax denotes the time at which the peak concentration occurs.

As to `CC(C)(c1ccc(-c2ccc(OC3CC4CCC(C3)N4c3ccnc(P(C)(C)=O)n3)nc2)cc1)c1cc(Cl)c(OCCCl)c(C#N)c1` (centres unmarked) [Compound 140], inhibition in data set [1] (168 h) was half-maximal at 530 nM (IC50). On the same count and under the same terms, the figure for `CC(C)(c1ccc(-c2ccc(OCC3CC(CN4CC5(C4)CS(=N)(=O)C5)C3)cc2)cc1)c1cc(Cl)c(OCCCl)c(C#N)c1` (centres unmarked) [Compound 307] is 660 nM; for `CC(C)(c1ccc(-c2ccc(OCc3ccnc(N4CC5(CC(O)C5)C4)n3)cc2)cc1)c1cc(Cl)c(OCCCl)c(C#N)c1` [Compound 165] it is 390 nM. Still for that read-out and setting: the figure for `CC(C)(c1ccc(-c2ccc(OCC3CCC(CN4CC5(C4)CS(=O)(=O)C5)CC3)cc2)cc1)c1cc(Cl)c(OCCCl)c(C#N)c1` (centres unmarked) [Compound 309] is 460 nM; for `CC(C)(c1ccc(-c2ccc(OCC3CC(CN4CC5(C4)CS(=O)(=O)C5)C3)cc2)cc1)c1cc(Cl)c(OCCCl)c(C#N)c1` (centres unmarked) [Compound 80] it is 110 nM.

Compound `CC(C)(c1ccc(-c2ccc(OCc3ccnc(C4CNC4)n3)cc2)cc1)c1cc(Cl)c(OCCCl)c(C#N)c1` [Compound 144] had an IC50 in data set [1] (168 h) of 740 nM. The same measure, in the same setting: the result for `CC(C)(c1ccc(-c2ccc(OCc3ccnc(P(C)(C)=O)n3)cc2)cc1)c1cc(Cl)c(OCC2CCC2)c(C#N)c1` [Compound 152] reads 330 nM. Regarding `CC(C)(c1ccc(-c2ccc(OC[C@@H]3CCOC3)cc2)cc1)c1cc(Cl)c(OCCCl)c(C#N)c1` [Compound 171], it took 1240 nM to reach half-maximal inhibition in data set [1] (168 h) (IC50).

Consider `CC(C)(c1ccc(-c2ccc(C#Cc3ncc(P(C)(C)=O)cn3)cc2)cc1)c1cc(Cl)c(OCCCl)c(C#N)c1` [Compound 282], for which, in data set [1] (168 h), 820 nM corresponded to half-maximal inhibition (IC50).

For the compound `CC(C)(c1ccc(-c2ccc(OCc3ccnc(S(C)(=O)=O)n3)cc2)cc1)c1cc(Cl)c(OCCCl)c(C#N)c1` [Compound 1], inhibition in data set [1] (168 h) was half-maximal at 1070 nM (IC50). In turn, `CC(c1ccccc1)(c1ccc(-c2ccc(OCc3ccnc(P(C)(C)=O)n3)cc2)cc1)c1cc(Cl)c(OCCCl)c(C#N)c1` (centres unmarked) [Compound 190] showed an IC50 in data set [1] (168 h) of 630 nM. `CN(C1CN(c2nccc(COc3ccc(-c4ccc(C(C)(C)c5cc(Cl)c(OCCCl)c(C#N)c5)cc4)cc3)n2)C1)S(C)(=O)=O` [Compound 93]: it took 1010 nM to reach half-maximal inhibition in data set [1] (168 h) (IC50). Still for that read-out and setting: the result for `CNC(=O)CN1CCS(=O)(=Nc2nccc(COc3ccc(-c4ccc(C(C)(C)c5cc(Cl)c(OCCCl)c(C#N)c5)cc4)cc3)n2)CC1` [Compound 255] reads 560 nM; that for `CC(C)(c1ccc(-c2ccc(OCC3CC4(C3)CS(=N)(=O)C4)cn2)cc1)c1cc(Cl)c(OCCCl)c(C#N)c1` (centres unmarked) [Compound 328], 1110 nM; that for `CC(C)(c1ccc(-c2ccc(/C=C/c3cnc(N=S4(=O)CCOCC4)nc3)cc2)cc1)c1cc(Cl)c(OCCCl)c(C#N)c1` [Compound 293], 74 nM. For the compound `CC(C)(c1ccc(-c2ccc(OCc3ccnc(N=S4(=O)CCN(CC(O)CC(F)(F)F)CC4)n3)cc2)cc1)c1cc(Cl)c(OCCCl)c(C#N)c1` (centres unmarked) [Compound 285], it took 210 nM to reach half-maximal inhibition in data set [1] (168 h) (IC50). On the same count and under the same terms, the figure for `CC(C)(c1ccc(-c2ccc(OCC3CN(C4CCOCC4)C3)cc2)cc1)c1cc(Cl)c(OCCCl)c(C#N)c1` [Compound 212] is 440 nM.

In data set [1] (168 h), `CC(C)(c1ccc(-c2ccc(OCCN3CC4(C3)CS(=O)(=O)C4)cc2)cc1)c1cc(Cl)c(OCCCl)c(C#N)c1` [Compound 299] gave an IC50 of 970 nM.

As to `CC(C)(c1ccc(-c2ccc(OCc3ccnc(N4CC5(C4)CS(=O)(=O)C5)n3)cn2)cc1)c1cc(Cl)c(OCCCl)c(C#N)c1` [Compound 84], in data set [1] (168 h), the IC50 was found to be 1050 nM.

Compound `C[C@H](O)CN1CCS(=O)(=Nc2nccc(COc3ccc(-c4ccc(C(C)(C)c5cc(Cl)c(OCCCl)c(C#N)c5)cc4)cc3)n2)CC1` [Compound 316] yielded a half-maximal inhibitory concentration (IC50) in data set [1] (168 h) of 680 nM. Consider `CC(C)(c1ccc(-c2ccc(OCC3CC(CN4CC5(CCS(=O)(=O)CC5)C4)C3)cc2)cc1)c1cc(Cl)c(OCCCl)c(C#N)c1` (centres unmarked) [Compound 303], for which, in data set [1] (168 h), inhibition was half-maximal at 490 nM (IC50).

`CC(C)(c1ccc(-c2ccc(OCCOc3nccc(P(C)(C)=O)n3)cc2)cc1)c1cc(Cl)c(OCCCl)c(C#N)c1` [Compound 330] showed an IC50 in data set [1] (168 h) of 280 nM. The compound `CC(C)(c1ccc(-c2ccc(/C=C/c3cnc(N4CC5(C4)CS(=O)(=O)C5)nc3)cc2)cc1)c1cc(Cl)c(OCCCl)c(C#N)c1` [Compound 235] showed a 50% inhibitory concentration (IC50) in data set [1] (168 h) of 610 nM. On the same count and under the same terms, the result for `CC(C)(c1ccc(-c2ccc(OCc3ccnc(N4CC5(C4)CC(F)(F)C5)n3)cc2)cc1)c1cc(Cl)c(OCCCl)c(C#N)c1` [Compound 198] reads 530 nM; that for `CC(C)(c1ccc(-c2ccc(OCC3CCOCC3)nc2)cc1)c1cc(Cl)c(OCCCl)c(C#N)c1` [Compound 184], 920 nM; that for `CC(C)(c1ccc(-c2ccc(OCc3ccnc(N=S4(=O)CCN(C[C@H](O)C(F)(F)F)CC4)n3)cc2)cc1)c1cc(Cl)c(OCCCl)c(C#N)c1` [Compound 287], 670 nM. The same measure, in the same setting: the figure for `CC(C)(c1ccc(-c2ccc(OCc3ccc(-c4cnc(P(C)(C)=O)nc4)cc3)nc2)cc1)c1cc(Cl)c(OCCCl)c(C#N)c1` [Compound 277] is 1310 nM. Compound `CC(C)(c1ccc(-c2ccc(OCc3ccnc(N4CC5(COC5)C4)n3)cc2)cc1)c1cnc2c(cnn2CCCl)c1` [Compound 45] yielded a half-inhibitory concentration (IC50) in data set [1] (168 h) of 990 nM. The same measure, in the same setting: the figure for `CC(C)(c1ccc(-c2ccc(OCc3ccnc(N=S4(=O)CCOCC4)n3)cc2)cc1)c1cc(Cl)c(OCCCl)c(C#N)c1` [Compound 43] is 300 nM; for `CC(C)(c1ccc(-c2ccc(OCC3CC(CN4CC5(CCS(=N)(=O)CC5)C4)C3)cc2)cc1)c1cc(Cl)c(OCCCl)c(C#N)c1` (centres unmarked) [Compound 311] it is 540 nM. Same read-out and setting: the figure for `CC(C)(c1ccc(-c2ccc(OCC3CCOCC3)cc2)cc1)c1cc(Cl)c(OCCCl)c(C#N)c1` [Compound 74] is 290 nM; for `CC(C)(c1ccc(-c2ccc(OCC3CC(CN4CC5(COC5)C4)C3)cc2)cc1)c1cc(Cl)c(OCCCl)c(C#N)c1` (centres unmarked) [Compound 196] it is 860 nM. As to `CC(C)(c1ccc(-c2ccc(OCc3ccnc(N4CC(S(=N)(=O)C5CC5)C4)n3)cc2)cc1)c1cc(Cl)c(OCCCl)c(C#N)c1` (racemic) [Compound 295], in data set [1] (22Rv1, 168 h), the half-maximal inhibitory concentration (IC50) was found to be 330 nM. For the compound `CC(C)(c1ccc(-c2ccc(OCc3ccnc(N4CC5(CC(S(C)(=O)=O)C5)C4)n3)cc2)cc1)c1cc(Cl)c(OCCCl)c(C#N)c1` [Compound 121], half-maximal inhibition in data set [1] (168 h) (IC50) required 190 nM.

As to `CC(C)(c1ccc(-c2ccc(OCc3ccnc(P(C)(C)=O)n3)cc2)cc1)c1cnc2c(cnn2CCCl)c1` [Compound 42], in data set [2] (plasma), the AUC(0-inf) was found to be 422 µg·h/mL, the Cmax is 34300 ng/mL, the half-life was 4.42 h and the time to peak (Tmax) turned out to be 3.33 h. Take `CC(C)(c1ccc(N2CCC(Oc3ccnc(P(C)(C)=O)n3)CC2)cc1)c1cc(Cl)c(OCCCl)c(C#N)c1` [Compound 10]: in data set [2] (in vivo), the total exposure AUC(0-inf) was found to be 316 µg·h/mL, the highest concentration (Cmax) came out at 31000 ng/mL, the half-life is 5.4 h and the Tmax came to 3.3 h.

In the case of `CC(C)(c1ccc(-c2ccc(/C=C/c3ccnc(P(C)(C)=O)n3)cc2)cc1)c1cc(Cl)c(OCCCl)c(C#N)c1` [Compound 228], in data set [2] (plasma, po), the AUC(0-inf) worked out at 242 µg·h/mL, the peak level (Cmax) was 14500 ng/mL, the half-life is 6 h and the time to peak (Tmax) was determined as 4 h.

Consider `CC(C)(c1ccc(-c2cccc(OCc3ccnc(P(C)(C)=O)n3)c2)cc1)c1cc(Cl)c(OCCCl)c(C#N)c1` [Compound 6], for which, in data set [2] (in vivo), the AUC(0-inf) was determined as 447 µg·h/mL, the highest level (Cmax) was 62800 ng/mL, the half-life was 2.2 h and the Tmax amounted to 2.7 h.
